Measured values reported in ChEMBL document CHEMBL1147730, “3D-QSAR studies on cannabinoid CB1 receptor agonists: G-protein activation as biological data” (J Med Chem, 2006).

Assays:
[1] = target: Cannabinoid receptor 1 (Rattus norvegicus) (UniProt P20272); test: (§1) […] [35S]GTP-gamma-S from rat cerebellar CB1 receptor; type: functional; conditions: Wistar
Cannabinoid receptor 1 = Cannabinoid receptor 1 (Rattus norvegicus, UniProt P20272); test: as §1; type: functional, Wistar
Sequence of Cannabinoid receptor 1 (P20272 whole entry): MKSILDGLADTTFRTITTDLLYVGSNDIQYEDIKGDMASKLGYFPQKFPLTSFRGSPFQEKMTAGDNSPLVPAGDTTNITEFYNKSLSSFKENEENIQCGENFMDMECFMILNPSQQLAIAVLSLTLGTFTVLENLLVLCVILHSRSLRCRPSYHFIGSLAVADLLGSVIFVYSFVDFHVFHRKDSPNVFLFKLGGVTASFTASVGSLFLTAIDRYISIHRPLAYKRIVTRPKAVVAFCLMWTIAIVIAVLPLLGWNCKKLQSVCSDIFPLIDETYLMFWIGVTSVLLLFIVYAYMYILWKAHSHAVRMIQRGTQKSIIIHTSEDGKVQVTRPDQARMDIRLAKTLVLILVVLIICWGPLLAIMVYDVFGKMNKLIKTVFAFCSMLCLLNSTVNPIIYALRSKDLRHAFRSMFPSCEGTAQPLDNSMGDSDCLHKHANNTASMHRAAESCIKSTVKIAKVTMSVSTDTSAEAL

Sequence of Cannabinoid receptor 1 (Rattus norvegicus) (P20272 whole entry): as above

Compound	Emax [1]	EC50 (Cannabinoid receptor 1)
CCCCCc1cc(O)c2c(c1)OC(C)(C)c1ccc(C)cc1-2 [CANNABINOL]	131%	316 nM
CCCCC/C=C\C/C=C\C/C=C\C/C=C\CCCNC(=O)CCO	284%	15800 nM
CCCCC/C=C\C/C=C\C/C=C\C/C=C\CCCNC(=O)CCC	210%	1260 nM
CCCCCCC(C)(C)/C=C\C/C=C\C/C=C\C/C=C\CCCOC(CO)CO	474%	50100 nM
CCCCC/C=C\C/C=C\C/C=C\C/C=C\CCCNC(=O)CC	260%	2000 nM
CCCCCCC(C)(C)/C=C\C/C=C\C/C=C\C/C=C\CCCCOC(CO)CO	352%	39800 nM
CCCCC/C=C\C/C=C\C/C=C\C/C=C\CCCCNC(=O)CCC	199%	3160 nM
CCCCCCC(C)(C)/C=C\C/C=C\C/C=C\C/C=C\CCCC(=O)OC(CO)CO	332%	50100 nM
CCCCC/C=C\C/C=C\C/C=C\C/C=C\CCCC(=O)C(F)(F)F [ARACHIDONYL TRIFLUOROMETHYLKETONE]	161%	25100 nM
CCCCC/C=C\C/C=C\C/C=C\C/C=C\CCCCNC(=O)CCO	286%	7940 nM
CCCCC/C=C\C/C=C\C/C=C\C/C=C\CCCCNC(=O)CC	213%	3160 nM
CCCCCCC(C)(C)c1ccc([C@@H]2C[C@H](O)CC[C@H]2CCCO)c(O)c1	443%	–
CCCCCc1cc(O)c2c(c1)OC(C)(C)[C@@H]1CCC(C)=C[C@@H]21	159%	–
CC1=CC[C@@H]2[C@@H](C1)c1c(O)cc(C(C)(C)CCCCC#N)cc1OC2(C)C	369%	10 nM
CCCCCCC(C)(C)/C=C\C/C=C\C/C=C\C/C=C\CCC(=O)OC(CO)CO	382%	50100 nM
CCCCCCC(C)(C)c1cc(O)c2c(c1)OC(C)(C)[C@@H]1CC=C(CO)C[C@@H]21	396%	5.01 nM
CCCCC/C=C\C/C=C\C/C=C\C/C=C\CCCCOC(=O)[C@H](O)CO	255%	–
CCCCC/C=C\C/C=C\C/C=C\C/C=C\CCCC(=O)NCCCl	326%	316 nM
CC1=CC[C@@H]2[C@@H](C1)c1c(O)cc(C(C)(C)CCCCBr)cc1OC2(C)C	400%	10 nM
CCCCC/C=C\C/C=C\C/C=C\C/C=C\CCCC(=O)NC1CC1	351%	398 nM
CCCC(C)(C)c1ccc2c(c1)OC(C)(C)[C@@H]1CC=C(C)C[C@@H]21	158%	2000 nM
CCCCCc1cc(O)c2c(c1)OC(C)(C)[C@@H]1CC=C(C)C[C@@H]21 [DELTA-8-TETRAHYDROCANNABINOL]	184%	–
